The results in this text go back to patent US9487489B2, “Halogen-substituted pyrazole derivatives as pest-control agents” (BAYER CROPSCIENCE AKTIENGESELLSCHAFT, priority 2013, dated 2016).

Series [1] is described as follows: logP determination by HPLC on a reversed-phase column (C18), EEC Directive 79/831 Annex V.A8. It counts as physicochemical. Here is the method:
(§1) ^a) Note regarding the determination of the logP values and mass detection: The determination of the given logP values was carried out in accordance with EEC Directive 79/831 Annex V.A8 by HPLC (High Performance Liquid Chromatography) on a reversed-phase column (C18). Agilent 1100 LC system; 50*4.6 Zorbax Eclipse Plus C18 1.8 micron; mobile phase A: acetonitrile (0.1% formic acid); mobile phase B: water (0.09% formic acid); linear gradient from 10% acetonitrile to 95% acetonitrile in 4.25 min, then 95% acetonitrile for a further 1.25 min; oven temperature 55° C.; flow rate: 2.0 ml/min. Mass detection is carried out via an Agilend MSD system.
as §1, with “^*)” for “^a)”

For series [2], the system named is larvae of the mustard beetle (Phaedon cochleariae). Description: Phaedon cochleariae spray test (PHAECO). It counts as in vivo. The settings on record: Chinese cabbage leaf discs, after 7 days. Here is the method: H. Phaedon cochleariae-spray Test (PHAECO)
Solvents: 78.0 parts by weight of acetone
• 1.5 parts by weight of dimethylformamide Emulsifier: alkylaryl polyglycol ether
To produce a suitable preparation of active compound, 1 part by weight of active compound is dissolved using the stated parts by weight of solvent and made up with water comprising an emulsifier concentration of 1000 ppm until the desired concentration is reached. To produce further test concentrations, the preparation is diluted with emulsifier-containing water.
After 7 days, the efficacy in % is determined. 100% means that all of the beetle larvae have been killed; 0% means that none of the beetle larvae have been killed.

For series [3], the system named is adult cat fleas (Ctenocephalides felis). Description: Ctenocephalides felis in vitro contact test with adult cat fleas (T1). The settings on record: after 48 h. Here is the method:
T1. Ctenocephalides felis—in vitro Contact Tests with Adult Cat Fleas
For the coating of the test tubes, initially 9 mg of active compound are dissolved in 1 ml of acetone p.a. and then diluted with acetone p.a. to the desired concentration. By turning and rocking on an orbital shaker (2 h of rocking rotation at 30 rpm), 250 μl of the solution are distributed homogeneously on the internal walls and the floor of a 25 ml test tube. At 900 ppm active compound solution and 44.7 cm^2 internal surface, an area dose of 5 μg/cm^2 is achieved for homogeneous distribution.
After evaporation of the solvent, the tubes are populated with 5-10 adult cat fleas (Ctenocephalides felis), sealed with a perforated plastic lid and incubated in a horizontal position at room temperature and ambient humidity. After 48 h, the efficacy is determined. To this end, the test tubes are stood upright and the fleas are knocked to the floor of the tube. Fleas which remain motionless on the floor or move in an uncoordinated manner are considered to be dead or moribund.
An efficacy of 100% means that all fleas were dead or moribund. 0% efficacy means that none of the fleas had been damaged.

Setting [4] is: HPLC on reversed-phase column (C18), acetonitrile/water with formic acid, EEC Directive 79/831 Annex V.A8.
[5] abbreviates: HPLC, reversed-phase C18, acetonitrile (0.1% formic acid)/water (0.09% formic acid) gradient.

Structures are written as SMILES.

One may read the logP as a log measure of how a compound divides between an organic and an aqueous phase. High values mean a more lipophilic compound, low ones a more hydrophilic compound. `Cn1nc(C(F)(F)C(F)(F)F)c(C(F)(F)F)c1-n1cc(-c2ccc(Cl)c(C(=O)NC3(C4CCC4)CC3)c2)cn1` [Ic-210] registered a logP in series [1] (setting [4]) of 4.77.
In turn, `Cn1nc(C(F)(F)C(F)(F)F)c(C(F)(F)F)c1-n1cc(-c2cncc(C(=O)NC3CC3)n2)cn1` [Ic-178] showed an efficacy in % in series [2] (application rate 100 g/ha) of 100%.
In series [1] (setting [4]), `CON=Cc1c(C(F)(F)F)nn(C)c1-n1cc(-c2ccc(Cl)c(C(=O)NC3CC3)c2)cn1` (mixture of isomers) [Ic-51] registered a logP of 3.15. In addition, the efficacy in % in series [2] (application rate 500 g/ha) is on record as 100%.
For the compound `Cn1nc(C(F)(F)C(F)(F)F)c(C(F)(F)F)c1-n1cc(-c2ccc(Cl)c(C(=O)NC3(C#N)CC3)c2)c(N)n1` [Ic-191], in series [1] (setting [4]), the logP was determined as 3.3. In series [2] (application rate 100 g/ha), this compound registered an efficacy in % of 100%.
For the compound `Cn1nc(C(F)(F)C(F)(F)F)c(C(F)(F)F)c1-n1cc(-c2ccc(C(F)(F)F)c(C(=O)NC3CC3)c2)cn1` [Ic-196], the logP in series [1] (setting [4]) is on record as 3.96.
In series [1] (setting [4]), `Cn1nc(C(F)(F)F)c(C#N)c1-n1cc(-c2ccc(Cl)c(C(=O)NC3CC3)c2)cn1` [Ic-30] had a logP of 2.97. The efficacy in % in series [2] (application rate 100 g/ha) turned out to be 100%.
In series [1] (setting [4]), `Cn1nc(C(F)(F)C(F)(F)F)c(C(F)(F)F)c1-n1cc(-c2ccc(Cl)c(C(=O)Nc3ccc(F)cc3)c2)cn1` [Ic-209] came in with a logP of 4.53.
On to `Cn1nc(C(F)(F)C(F)(F)F)c(C(F)(F)F)c1-n1cc(-c2cc(C(=O)NC3(C#N)CC3)c(Cl)cc2F)cn1` [Ic-93], for which the efficacy in % in series [2] (application rate 500 g/ha) came out at 100%.
With `CN(C)CCNC(=O)c1cc(-c2cnn(-c3c(C(F)(F)F)c(C(F)(F)C(F)(F)F)nn3C)c2)ccc1Cl` [Ic-138], the “efficacy (dead or moribund fleas)” value in series [3] (application rate 5 μg/cm^2) was 80%.
Consider `Cn1nc(C(F)(F)F)c(C(=O)NC2CC2)c1-n1cc(-c2ccc(Cl)c(C(=O)NC3(C#N)CC3)c2)cn1` [Ic-101], for which the logP in series [1] (setting [4]) came to 2.32.
`CCCN(C(=O)c1cc(-c2cnn(-c3c(C(F)(F)F)c(C(F)(F)C(F)(F)F)nn3C)c2)ccc1Cl)C1(C#N)CC1` [Ic-204] displayed a logP in series [1] (setting [4]) of 4.56.
Turning to `Cn1nc(C(F)(F)C(F)(F)F)c(C(F)(F)F)c1-n1cnc(-c2cccc(C(=O)NC3CC3)c2)n1` [Ie-3], the logP in series [1] (setting [5]) is on record as 3.50.
Consider `Cn1nc(C(F)(F)C(F)(F)F)c(C(F)(F)F)c1-n1cc(-c2ccc(Cl)c(C(=O)Nc3nn[nH]n3)c2)cn1` [Ic-144], for which the “efficacy (dead or moribund fleas)” value in series [3] (application rate 1 μg/cm^2) and in series [3] (application rate 5 μg/cm^2) was 100% throughout.
In turn, `Cn1nc(C(F)(F)F)c(C=O)c1-n1cc(-c2ccc(Cl)c(C(=O)NC3CC3)c2)cn1` [Ic-52] gave a logP in series [1] (setting [4]) of 2.67. For the same compound, the efficacy in % in series [2] (application rate 500 g/ha) is 100%.
Turning to `Cn1nc(C(F)(F)F)c(CCl)c1-n1cc(-c2ccc(Cl)c(C(=O)NC3CC3)c2)cn1` [Ic-114], the log partition coefficient (logP) in series [1] (setting [4]) came out at 3.12.
Regarding `CCN(C(=O)c1cc(-c2cnn(-c3c(C(F)(F)F)c(C(F)(F)C(F)(F)F)nn3C)c2)ccc1Cl)C1(C#N)CC1` [Ic-208], in series [1] (setting [4]), the logP is on record as 4.33.
Same read-out and setting: to `CC(NC(=O)c1cc(-c2cnn(-c3c(C(F)(F)F)c(C(F)(F)C(F)(F)F)nn3C)c2)ccc1Cl)C1CC1` (stereo not drawn) [Ic-207] belongs 4.4; to `CCC(=O)N(C(=O)c1cc(-c2cnn(-c3c(C(F)(F)F)c(C(F)(F)C(F)(F)F)nn3C)c2)ccc1Cl)C1(C#N)CC1` [Ic-205], 4.63.
Take `CN(C(=O)c1cc(-c2cnn(-c3c(C(F)(F)F)c(C(F)(F)C(F)(F)F)nn3C)c2)ccc1Cl)C1CC1` [Ic-199]: the “efficacy (dead or moribund fleas)” value in series [3] (application rate 1 μg/cm^2) and in series [3] (application rate 5 μg/cm^2) was 100% throughout.
For the compound `Cn1nc(C(F)(F)C(F)(F)F)c(C(F)(F)F)c1-n1cc(-c2ccc(Cl)c(C(=O)NC3CC3)c2)c(N)n1` [Ic-192], the logP in series [1] (setting [4]) worked out at 3.35. In addition, the efficacy in % in series [2] (application rate 100 g/ha) turned out to be 100%.
Regarding `Cn1nc(C(F)(F)C(F)(F)F)c(C(F)(F)F)c1-n1cnc(-c2cccc(C(=O)Nc3ccc(Cl)nc3)c2)n1` [Ie-5], the logP in series [1] (setting [5]) was determined as 4.24. The efficacy in % in series [2] (application rate 100 g/ha) is 100%.
Turning to `Cn1nc(C(F)(F)F)c(C=O)c1-n1cc(-c2ccc(Cl)c(C(=O)NC3(C#N)CC3)c2)cn1` [Ic-102], the logP in series [1] (setting [4]) came out at 2.61.
For the compound `Cn1nc(C(F)(F)C(F)(F)F)c(C(F)(F)F)c1-n1cc(-c2cncc(C(=O)NC3(C#N)CC3)n2)cn1` [Ic-179], in series [2] (application rate 500 g/ha), the efficacy in % came to 100%.
For `Cn1nc(C(F)(F)F)c(C(=O)NC2CC2)c1-n1cc(-c2ccc(Cl)c(C(=O)NC3CC3)c2)cn1` [Ic-100], the logP in series [1] (setting [4]) was found to be 2.31.
Broadly, the chromatographic logP is a lipophilicity value derived from retention on a column. A lower chromatographic logP goes with lower lipophilicity. The compound `Cn1nc(C(F)(F)C(F)(F)F)c(C(F)(F)F)c1-n1cnc(-c2ccc(Cl)c(C(=O)NCc3ccccc3)c2)c1` [Ib-1, N-Benzyl-2-chloro-5-{1-[1-methyl-3-(pentafluoroethyl)-4-(trifluoromethyl)-1H-pyrazol-5-yl]-1H-imidazol-4-yl}benzamide] had a chromatographic logP in series [1] of 4. The efficacy in % in series [2] (application rate 100 g/ha) turned out to be 83%.
`Cn1nc(C(F)(F)C(F)(F)F)c(C(F)(F)F)c1-n1cnc(-c2cccc(C(=O)NC3(C(N)=S)CC3)c2)n1` [Ie-6] registered a lipophilicity (logP) in series [1] (setting [5]) of 3.29.
`CSc1c(C(F)(F)C(F)(F)F)nn(C)c1-n1cc(-c2ccc(Cl)c(C(=O)NC3(C#N)CC3)c2)cn1` [Ic-194] returned a logP in series [1] (setting [4]) of 3.56.
Compound `Cn1nc(C(F)(F)C(F)(F)F)c(C(F)(F)F)c1-n1cc(-c2cc(C(=O)NC3CC3)c(F)c(S(N)(=O)=O)c2)cn1` [Ic-173] registered an efficacy in % in series [2] (application rate 500 g/ha) of 100%.
Consider `Cn1nc(C(F)(F)C(F)(F)F)c(C(F)(F)F)c1-n1cnc(-c2cccc(C(=O)NCc3cccs3)c2)n1` [Ie-4], for which the logP in series [1] (setting [5]) was 4.05. In series [2] (application rate 100 g/ha), this compound displayed an efficacy in % of 100%.
`Cn1nc(C(F)(F)C(F)(F)F)c(C(F)(F)F)c1-n1cc(-c2ccc(Cl)c(C(=O)NCc3ncc[nH]3)c2)cn1` [Ic-146]: the “efficacy (dead or moribund fleas)” value in series [3] (application rate 1 μg/cm^2) and in series [3] (application rate 5 μg/cm^2) was 80% throughout.
`Cn1nc(C(F)(F)C(F)(F)F)c(C(F)(F)F)c1-n1cnc(-c2cccc(C(=O)NC3(C#N)CC3)c2)n1` [Ie-7]: in series [1] (setting [5]), the logP was 3.46.
In turn, `Cn1nc(C(F)(F)C(F)(F)F)c(C(F)(F)F)c1-n1cnc(-c2ccc(Cl)c(C(=O)NC3CC3)c2)n1` [Ie-2] gave a logP in series [1] (setting [5]) of 3.72.
Compound `Cn1nc(C(F)(F)F)c(C=NO)c1-n1cc(-c2ccc(Cl)c(C(=O)NC3(C#N)CC3)c2)cn1` (mixture of isomers) [Ic-98] registered a lipophilicity (logP) in series [1] (setting [4]) of 2.42.
Turning to `CCN(CC)C(=O)c1cc(-c2cnn(-c3c(C(F)(F)F)c(C(F)(F)C(F)(F)F)nn3C)c2)ccc1S(=O)(=O)NC1CC1` [Ic-197], the logP in series [1] (setting [4]) turned out to be 4.39.
Regarding `Cn1nc(C(F)(F)C(F)(F)F)c(C(F)(F)F)c1-n1cc(-c2ccc(Cl)c(C(=O)Nc3ccon3)c2)cn1` [Ic-145], the “efficacy (dead or moribund fleas)” value in series [3] (application rate 1 μg/cm^2) and in series [3] (application rate 5 μg/cm^2) was 100% each time.
For `Cn1nc(C(F)(F)F)c(C=NO)c1-n1cc(-c2ccc(Cl)c(C(=O)NC3CC3)c2)cn1` (mixture of isomers) [Ic-50], the log partition coefficient (logP) in series [1] (setting [4]) is 2.47.
For `Cc1c(-c2ccc(Cl)c(C(=O)NC3CC3)c2)c(C(F)(F)F)nn1-c1c(C(F)(F)F)c(C(F)(F)C(F)(F)F)nn1C` [Ic-5], the logP in series [1] (setting [4]) is on record as 4.60. This compound also showed an efficacy in % in series [2] (application rate 100 g/ha) of 83%.
Turning to `CCN(C(=O)c1cc(-c2cnn(-c3c(C(F)(F)F)c(C(F)(F)C(F)(F)F)nn3C)c2)ccc1Cl)C1CC1` [Ic-211], the “efficacy (dead or moribund fleas)” value in series [3] (application rate 1 μg/cm^2) and in series [3] (application rate 5 μg/cm^2) was 100% in each case.
As to `Cn1nc(C(F)(F)C(F)(F)F)c(C(F)(F)F)c1-n1cc(-c2ccc(C(F)(F)F)c(C(=O)NC3(C#N)CC3)c2)cn1` [Ic-203], the logP in series [1] (setting [4]) is reported as 3.88.
In series [1] (setting [4]), `C=CCN(C(=O)c1cc(-c2cnn(-c3c(C(F)(F)F)c(C(F)(F)C(F)(F)F)nn3C)c2)ccc1Cl)C1(C#N)CC1` [Ic-206] came in with a logP of 4.44.
